Experimental data from publication PMC12036971 (2025).

Molecular target: Akita16 HA (crystal construct) (Influenza A virus (A/black swan/Akita/1/2016(H5N6)), UniProt A0A1L7N0F8)

## CC(=O)N[C@H]1[C@H](O[C@H]2[C@@H](O)[C@@H](CO)O[C@@H](O[C@H]3[C@H](O)[C@@H](O)C(O)O[C@@H]3CO)[C@@H]2O)O[C@H](CO)[C@@H](O)[C@@H]1O[C@@H]1O[C@H](CO)[C@H](O)[C@H](O[C@]2(C(=O)O)C[C@H](O)[C@@H](NC(C)=O)[C@H]([C@H](O)[C@H](O)CO)O2)[C@H]1O (stereo partly shown) [LSTa, NeuAcα2-3Galβ1-3GlcNAcβ1-3Galβ1-4Glc]
  X-ray crystal structure of complex, 2.71 Å: Akita16-WT HA structure with avian-type receptor analog, LSTa
